Among the data in patent US10508085B2, “Compounds and methods for IDO and TDO modulation, and indications therefor” (Plexxikon Inc., priority 2016, dated 2019) are IC50 values, retold here.

The target of assay [1] is T1, Human Indoleamine 2,3-dioxygenase (IDO) (Homo sapiens, UniProt P14902).
T1 construct: His tag (N); made in house; host or cells: E. coli
Description: Human IDO enzymatic assay (kynurenine level). The format is biochemical. The following applies: 6 nM IDO, 10 μM L-Trp; geometric mean; read-out: IDO1 GMean: IC50 (μM) (Biochemical Assay). A digest of the protocol: (§1)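 N-terminally His-tagged enzymes expressed in E. coli were run in 50 mM sodium phosphate pH 6.5 with 10 mM ascorbate, catalase and Tween 20. IDO: 6 nM enzyme, 10 μM L-Trp, 5 μM methylene blue, 20 min RT. TDO: 1 nM enzyme, 350 μM L-Trp, 0.4 μM methylene blue, 70 min RT.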

Assay [2] has as its target T2, Human Tryptophan 2,3-dioxygenase (TDO) (Homo sapiens, UniProt P48775).
T2 construct: His tag (N); made in house; host or cells: E. coli
Description: Human TDO enzymatic assay (kynurenine level). In kind it is biochemical. The conditions noted are these: 1 nM TDO, 350 μM L-Trp; geometric mean; read-out: TDO GMean: IC50 (μM) (Biochemical Assay). A digest of the protocol: as §1

Assay [3] addresses T3, human IDO (IDO1-expressing HEK293 cells) (Homo sapiens, UniProt P14902).
T3 construct: expressed in transfected cells
Description: Cell based kynurenine assay, IDO1-expressing HEK293 cell clones. The conditions noted are these: IDO1-expressing HEK293 cells, geometric mean, read-out: HEK293 IDO1 Kynurenine GMean IC50 (μM) (Cellular Assay). The method, boiled down: (§2)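 Cellular IDO1 and TDO activity is followed as kynurenine released by stably transfected HEK293 clones over 24 h with test compound. Controls are DMSO-treated cells and media alone.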

Assay [4] concerns the target T4, human TDO (TDO-expressing HEK293 cells) (Homo sapiens, UniProt P48775).
T4 construct: expressed in transfected cells
As to the kind of experiment: Cell based kynurenine assay, TDO-expressing HEK293 cell clones. The conditions noted are these: TDO-expressing HEK293 cells, geometric mean, read-out: HEK293 TDO Kynurenine GMean IC50 (μM) (Cellular Assay). The method, boiled down:
as §2

Like-named read-outs stand apart in the source and are kept apart here. Some results are limits rather than exact numbers.

T3 sequence (P14902 whole entry): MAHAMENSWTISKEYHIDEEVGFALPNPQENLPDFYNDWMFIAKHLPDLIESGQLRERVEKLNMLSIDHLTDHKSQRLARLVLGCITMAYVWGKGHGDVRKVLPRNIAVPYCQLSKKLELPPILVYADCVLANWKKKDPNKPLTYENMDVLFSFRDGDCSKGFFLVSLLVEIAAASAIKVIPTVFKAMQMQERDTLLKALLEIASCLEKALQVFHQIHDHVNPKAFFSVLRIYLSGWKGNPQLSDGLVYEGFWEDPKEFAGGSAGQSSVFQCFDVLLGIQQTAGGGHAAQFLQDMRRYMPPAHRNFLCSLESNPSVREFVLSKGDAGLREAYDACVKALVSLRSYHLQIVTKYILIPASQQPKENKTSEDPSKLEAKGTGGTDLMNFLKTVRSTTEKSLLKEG
T1 sequence (P14902 whole entry): as above
T2 sequence (P48775 whole entry): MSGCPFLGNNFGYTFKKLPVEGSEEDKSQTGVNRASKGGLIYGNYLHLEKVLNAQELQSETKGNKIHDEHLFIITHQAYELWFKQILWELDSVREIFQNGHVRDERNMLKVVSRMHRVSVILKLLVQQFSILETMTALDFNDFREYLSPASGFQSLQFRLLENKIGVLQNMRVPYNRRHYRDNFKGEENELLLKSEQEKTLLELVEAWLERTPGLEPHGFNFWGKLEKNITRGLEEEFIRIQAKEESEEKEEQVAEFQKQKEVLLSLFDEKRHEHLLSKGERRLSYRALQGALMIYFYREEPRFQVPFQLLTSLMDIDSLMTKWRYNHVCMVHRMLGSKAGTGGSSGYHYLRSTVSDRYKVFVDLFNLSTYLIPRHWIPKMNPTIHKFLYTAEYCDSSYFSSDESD
T4 sequence (P48775 whole entry): as above

Turning to `CCNC(=O)N1CCC(C(C)(C)C(O)c2cc(Cl)cc3cn[nH]c23)CC1` (centres unmarked) [Compound P-0399, 4-(1-(5-chloro-1H-indazol-7-yl)-1-hydroxy-2-methylpropan-2-yl)-N-ethylpiperidine-1-carboxamide], the concentration for half-maximal inhibition (IC50) in assay [1], in assay [2], in assay [3] (24 hours incubation) and in assay [4] (24 hours incubation) was 0.0001 to 10 µM throughout.
As to `CC(C)(C1CCN(C(=O)Nc2cccc(C(F)(F)F)c2)CC1)C(O)c1cc(Cl)cc2cn[nH]c12` (centres unmarked) [Compound P-0400, 4-(1-(5-chloro-1H-indazol-7-yl)-1-hydroxy-2-methylpropan-2-yl)-N-(3-(trifluoromethyl)phenyl)piperidine-1-carboxamide], the IC50 in assay [1], in assay [2], in assay [3] (24 hours incubation) and in assay [4] (24 hours incubation) was 0.0001 to 10 µM throughout.
Take `CC(C)(C1CCN(C(=O)Nc2ccccc2C(F)(F)F)CC1)C(O)c1cc(Cl)cc2cn[nH]c12` (centres unmarked) [Compound P-0401, 4-(1-(5-chloro-1H-indazol-7-yl)-1-hydroxy-2-methylpropan-2-yl)-N-(2-(trifluoromethyl)phenyl)piperidine-1-carboxamide]: the IC50 in assay [1], in assay [2], in assay [3] (24 hours incubation) and in assay [4] (24 hours incubation) was 0.0001 to 10 µM in each case.
Turning to `CN(C)c1ccc(NC(=O)N2CCC(C(C)(C)C(O)c3cc(Cl)cc4cn[nH]c34)CC2)cc1` (centres unmarked) [Compound P-0402, 4-(1-(5-chloro-1H-indazol-7-yl)-1-hydroxy-2-methylpropan-2-yl)-N-(4-(dimethylamino)phenyl)piperidine-1-carboxamide], the IC50 in assay [1], in assay [2], in assay [3] (24 hours incubation) and in assay [4] (24 hours incubation) was 0.0001 to 10 µM in each case.
In the case of `CC(C)(C1CCN(C(=O)Nc2ccc(OC(F)(F)F)cc2)CC1)C(O)c1cc(Cl)cc2cn[nH]c12` (centres unmarked) [Compound P-0403, 4-(1-(5-chloro-1H-indazol-7-yl)-1-hydroxy-2-methylpropan-2-yl)-N-(4-(trifluoromethoxy)phenyl)piperidine-1-carboxamide], the IC50 in assay [1], in assay [2], in assay [3] (24 hours incubation) and in assay [4] (24 hours incubation) was 0.0001 to 10 µM in each case.
Take `CC(C)(C1CCN(C(=O)Nc2cc(F)ccc2F)CC1)C(O)c1cc(Cl)cc2cn[nH]c12` (centres unmarked) [Compound P-0404, 4-(1-(5-chloro-1H-indazol-7-yl)-1-hydroxy-2-methylpropan-2-yl)-N-(2,5-difluorophenyl) piperidine-1-carboxamide]: the IC50 in assay [1], in assay [2], in assay [3] (24 hours incubation) and in assay [4] (24 hours incubation) was 0.0001 to 10 µM in each case.
As for `CCOC(=O)NC(=O)N1CCC(C(C)(C)C(O)c2cc(Cl)cc3cn[nH]c23)CC1` (centres unmarked) [Compound P-0405, ethyl (4-(1-(5-chloro-1H-indazol-7-yl)-1-hydroxy-2-methylpropan-2-yl)piperidine-1-carbonyl)carbamate], the IC50 in assay [1], in assay [2], in assay [3] (24 hours incubation) and in assay [4] (24 hours incubation) was 0.0001 to 10 µM throughout.
As for `Cc1ccc(Cl)c(NC(=O)N2CCC(C(C)(C)C(O)c3cc(Cl)cc4cn[nH]c34)CC2)c1` (centres unmarked) [Compound P-0406, 4-(1-(5-chloro-1H-indazol-7-yl)-1-hydroxy-2-methylpropan-2-yl)-N-(2-chloro-5-methylphenyl) piperidine-1-carboxamide], the IC50 in assay [1], in assay [2], in assay [3] (24 hours) and in assay [4] (24 hours) was 0.0001 to 10 µM each time.
As for `OC1(c2cc(Cl)cc3cn[nH]c23)[C@H]2CCC[C@@H]1CCC2` (stereo partly drawn) [Compound P-0407, (1R,5S)-9-(5-chloro-1H-indazol-7-yl)bicyclo[3.3.1] nonan-9-ol], the IC50 is 0.0001 to 10 µM in assay [1], 0.0001 to 10 µM in assay [2], more than 10 µM in assay [3] (24 hours) and 0.0001 to 10 µM in assay [4] (24 hours).
Take `O=C(CC1CC1)N1CCC(C(F)(F)C(O)c2c(F)c(Cl)cc3cn[nH]c23)CC1` (centres unmarked) [Compound P-0408, 1-(4-(2-(5-chloro-6-fluoro-1H-indazol-7-yl)-1,1-difluoro-2-hydroxyethyl)piperidin-1-yl)-2-cyclopropylethan-1-one]: the IC50 in assay [1], in assay [2], in assay [3] (24 hours) and in assay [4] (24 hours) was 0.0001 to 10 µM in each case.
As for `O=C(C1CCC1)N1CCC(C(F)(F)C(O)c2c(F)c(Cl)cc3cn[nH]c23)CC1` (centres unmarked) [Compound P-0409, (4-(2-(5-chloro-6-fluoro-1H-indazol-7-yl)-1,1-difluoro-2-hydroxyethyl)piperidin-1-yl)(cyclobutyl) methanone], the concentration for half-maximal inhibition (IC50) in assay [1], in assay [2], in assay [3] (24 hours) and in assay [4] (24 hours) was 0.0001 to 10 µM in each case.
As to `CC(C)(C1CCN(C(=O)CC2CC2)CC1)C(O)c1cc(Cl)cc2cn[nH]c12` (centres unmarked) [Compound P-0410, 1-(4-(1-(5-chloro-1H-indazol-7-yl)-1-hydroxy-2-methylpropan-2-yl)piperidin-1-yl)-2-cyclopropylethan-1-one], the IC50 in assay [1], in assay [2], in assay [3] (24 hours) and in assay [4] (24 hours) was 0.0001 to 10 µM in each case.
As to `CC(C)CC(=O)N1CCC(C(C)(C)C(O)c2cc(Cl)cc3cn[nH]c23)CC1` (centres unmarked) [Compound P-0411, 1-(4-(1-(5-chloro-1H-indazol-7-yl)-1-hydroxy-2-methylpropan-2-yl)piperidin-1-yl)-3-methylbutan-1-one], the 50% inhibitory concentration (IC50) in assay [1], in assay [2], in assay [3] (24 hours) and in assay [4] (24 hours) was 0.0001 to 10 µM each time.
`CC(C)(C1CCN(C(=O)C2CCC2)CC1)C(O)c1cc(Cl)cc2cn[nH]c12` (centres unmarked) [Compound P-0412, (4-(1-(5-chloro-1H-indazol-7-yl)-1-hydroxy-2-methylpropan-2-yl)piperidin-1-yl)(cyclobutyl) methanone]: the IC50 in assay [1], in assay [2], in assay [3] (24 hours) and in assay [4] (24 hours) was 0.0001 to 10 µM throughout.
Consider `CC(C)C(=O)N1CCC(C(C)(C)C(O)c2cc(Cl)cc3cn[nH]c23)CC1` (centres unmarked) [Compound P-0413, 1-(4-(1-(5-chloro-1H-indazol-7-yl)-1-hydroxy-2-methylpropan-2-yl)piperidin-1-yl)-2-methylpropan-1-one], for which the IC50 in assay [1], in assay [2], in assay [3] (24 hours) and in assay [4] (24 hours) was 0.0001 to 10 µM throughout.
As for `COCC(=O)N1CCC(C(C)(C)C(O)c2cc(Cl)cc3cn[nH]c23)CC1` (centres unmarked) [Compound P-0414, 1-(4-(1-(5-chloro-1H-indazol-7-yl)-1-hydroxy-2-methylpropan-2-yl)piperidin-1-yl)-2-methoxyethan-1-one], the 50% inhibitory concentration (IC50) in assay [1], in assay [2], in assay [3] (24 hours) and in assay [4] (24 hours) was 0.0001 to 10 µM in each case.
As for `CS(=O)(=O)NC12CCC(C(O)c3cc(Cl)cc4cn[nH]c34)(CC1)CC2` (centres unmarked) [Compound P-0415, N-(4-((5-chloro-1H-indazol-7-yl)(hydroxy)methyl)bicyclo[2.2.2]octan-1-yl) methanesulfonamide], the IC50 was 0.0001 to 10 µM in assay [1], 0.0001 to 10 µM in assay [2], 0.0001 to 10 µM in assay [3] (24 hours) and more than 10 µM in assay [4] (24 hours).
In the case of `CC(C)(C1CCN(C(=O)C2CC2)CC1)C(O)c1c(F)c(Cl)cc2cn[nH]c12` (centres unmarked) [Compound P-0416, (4-(1-(5-chloro-6-fluoro-1H-indazol-7-yl)-1-hydroxy-2-methylpropan-2-yl)piperidin-1-yl)(cyclopropyl) methanone], the half-maximal inhibitory concentration (IC50) in assay [1], in assay [2], in assay [3] (24 hours) and in assay [4] (24 hours) was 0.0001 to 10 µM each time.
In the case of `CC(C)(C1CCN(C(=O)c2ccccc2)CC1)C(O)c1c(F)c(Cl)cc2cn[nH]c12` (centres unmarked) [Compound P-0417, (4-(1-(5-chloro-6-fluoro-1H-indazol-7-yl)-1-hydroxy-2-methylpropan-2-yl)piperidin-1-yl)(phenyl) methanone], the half-maximal inhibitory concentration (IC50) in assay [1], in assay [2], in assay [3] (24 hours) and in assay [4] (24 hours) was 0.0001 to 10 µM each time.
In the case of `CC(C)(C1CCN(C(=O)c2cccnc2)CC1)C(O)c1c(F)c(Cl)cc2cn[nH]c12` (centres unmarked) [Compound P-0418, (4-(1-(5-chloro-6-fluoro-1H-indazol-7-yl)-1-hydroxy-2-methylpropan-2-yl)piperidin-1-yl)(pyridin-3-yl)methanone], the half-maximal inhibitory concentration (IC50) in assay [1], in assay [2], in assay [3] (24 hours) and in assay [4] (24 hours) was 0.0001 to 10 µM throughout.

Usually IC50 stands for the concentration that gives 50% inhibition.
